We go through 31 compounds from US12492210B2, “Tricyclic compounds and their use” (HUTCHISON MEDIPHARMA LIMITED, priority 2019, dated 2025).

The test system of assay [1] is p-RSK (Thr359) in colo205 cells. The experiment in a line: p-RSK (Thr359) Acumen Assay in Colo205. The settings on record: Homo sapiens, COLO 205, 1 hour compound incubation, read-out: Example 19 IC50. In kind it is cell-based. Here is the method: Example 19: p-RSK (Thr359) Acumen Assay in Colo205
• Phospho-p90RSK (Thr359) (D1E9) Rabbit mAb: cell signal, #8753 • Alexa Fluor® 488 donkey anti-rabbit IgG: invitrogen, #A-21206 • Propidium Iodide: Sigma, #p4170 • 4% Paraformaldehyde: SCRC, #DF021 • 10% Triton X-100: PIERCE, #28314 • 96-well plate (black with clear bottom): BD, #354640 • Acumen® eX3 (A Multilaser Microplate Cytometer For Enhanced High Content Screening): TTP LabTech 3. Acumen Assay Protocol • Seed 4000 cells in 100 μl 10% FBS/well into 96-well plate, incubate at 37° C., 5% CO2, overnight. • Dilute the compound to 3, 1, 0.33, 0.11, 0.037, 0.012, 0.004, 0.001 μM, keeping the DMSO concentration at 5%. Add 10 μl of diluted compound per well and incubate at 37° C., 5% CO2 for 1 hour. • Add 100 μl of 4% pre-warmed Paraformaldehyde (2% final), and incubate for 45 min at room temperature. • Remove paraformaldehyde solutions. Add 100 μl of ice-cold 0.1% Triton to fixed cells at room temperature for 30 min. • Wash twice with 150 μl PBS and incubate with 100 μl blocking buffer (1% BSA, in PBS) for 2˜3 hours at room temperature, seal the plate. • Wash once with PBS and incubate with 35 μl p-RSK (Thr359) (1:1000 dilution) overnight at 4° C. Seal the plate. • Wash twice with PBS and incubate for 1.5 hours at room temperature with 35 μl of Alexa Fluor® 488 donkey anti-rabbit IgG at a 1:1,000 dilution in antibody dilution buffer (0.1% BSA, in PBS). Cover plate in foil to keep out of light. • Wash twice with 150 μl PBS. Add 35 μl of 1.5 μM Propidium Iodide stock to each well to determine cell number, seal the plate. • Incubate at room temperature for 30 min. Load the plate into the Acumen Explorer and scan with the appropriate instrument settings. 4. Data Analysis
[formula] Note: • Percentagecompound well represents the positive percentage of cells treated by compound. • Percentagemin well represents the positive percentage of cells treated with 3 uM GDC0994. • Percentagemax well represents the positive percentage of cells without compounds treatment. 5. IC50 Value: determine IC50 with add-in software for Microsoft Excel, XLfit™ (version 2.0) from ID Business Solutions (Guildford, UK)

Another assay deals with T1, MAPK1(ERK2) enzyme (Homo sapiens, UniProt P28482).
T1 construct: purchased Invitrogen PV3313
The experiment in a line: Z-Lyte Kinase Assay of ERK2. The settings on record: read-out: Example 18 IC50. In kind it is biochemical. Here is the method: Example 18: Z-Lyte Kinase Assay of ERK2
1. Materials and Reagents:
2. Reaction Steps: Plate Map
3. Solution Preparation • 1) 1.33× Kinase Buffer: Dilute 5× Kinase Buffer to 1.33× with ddH2O • 2) 4× Test Compounds: Serially dilute the test compounds to 4 folds of the concentrations desired, keeping the DMSO concentration at 8%. The final concentrations are 1, 0.33, 0.11, 0.037, 0.012, 0.004, 0.0014, 0.00046 μM, and the final concentration of DMSO is 2%. • 3) Kinase/Peptide Mixture (P/K solution): Prepare Kinase/Peptide Mixture by diluting the kinase to 0.6 μg/ml and the Z-LYTE™ Ser/Thr3 peptide to 4 μM in 1.33× Kinase Buffer. Mix gently by pipetting. • 4) Phospho-peptide Solution (PP solution): Add 0.4 μl of Z-LYTE™ Ser/Thr3 Phospho-peptide to 99.6 μl of 1.33× Kinase Buffer. • 5) ATP Solution: Prepare ATP Solution by diluting the 10 mM of ATP in 1.33× Kinase Buffer to 100 μM. • 6) Development Solution: Dilute Development Reagent A with Development Buffer as 1:1024. 4. Reaction • 1) Kinase reaction (10 μl of Volume) • a. In a 384-well plate, add 2.5 μl of 4× test Cpds to each well except C1, C2, C3 wells Add 2.5 μl of 8% DMSO to C1, C2, C3 wells • b. Put the plate on ice • c. Add 5 μl of P/K mixture to each test Cpd wells and C1, C2 wells • d. Add 5 μl of PP Solution to C3 well • e. Add 2.5 μl of 1.33× kinase buffer to C1 and C3 wells • f. Add 2.5 μl of 4×ATP Solution to each test Cpd wells and C2 well, respectively. Shake the plate for 30 Sec and centrifuge (1500 rpm, 1 min) • g. Seal the plate to protect from the light and incubate the plate for 1 hour at RT (25-30° C.) • 2) Development reaction • a. Add 5 μl of the Development solution to all wells • b. Shake the plate for 30 sec and centrifuge (1500 rpm, 1 min) • c. Seal the plate to protect from the light and incubate the plate for 1 hour at RT (25-30° C.) • 3) Stop and read • a. Add 5 μl of the Stop reagent to all wells • b. Shake the plate for 30 sec and centrifuge (1500 rpm, 1 min) • c. Measure the value of coumarin (Ex400 nm, Em445 nm) and fluorescein (Ex400 nm, Em520 nm), respectively. 5. Data Analysis Emission Ratio(ER)=Coumarin Emission (445 nm)/Fluorescein Emission (520 nm) % Phosphorylation=1−[ER×C3520nm−C3445nm]/[(C1445nm−C3445nm)+ER×(C3520nm−C1520nm)] Inhibition rate (IR)=1−% Photest Cpd% PhoC2 6. IC50 Value: determine IC50 with add-in software for Microsoft Excel, XLfit™ (version 2.0) from ID Business Solutions (Guildford, UK)

T1 sequence (P28482 whole entry): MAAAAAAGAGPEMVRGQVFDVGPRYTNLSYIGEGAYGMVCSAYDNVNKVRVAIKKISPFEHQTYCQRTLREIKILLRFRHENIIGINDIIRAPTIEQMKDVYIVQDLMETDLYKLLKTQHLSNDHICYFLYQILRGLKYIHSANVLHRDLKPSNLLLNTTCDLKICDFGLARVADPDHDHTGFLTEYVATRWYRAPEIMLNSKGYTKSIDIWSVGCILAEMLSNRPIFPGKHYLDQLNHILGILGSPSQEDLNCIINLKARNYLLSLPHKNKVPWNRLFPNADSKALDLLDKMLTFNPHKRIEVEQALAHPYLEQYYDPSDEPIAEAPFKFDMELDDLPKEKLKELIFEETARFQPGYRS

Take `Cn1nccc1Nc1cc(-c2cc3n(c2)CCCn2c-3nnc2C(O)c2ccccc2)c(Cl)cn1` (centres unmarked) [Compound 18]: the 50% inhibitory concentration (IC50) – broadly, the concentration that inhibits the measured activity by half – was greater than 100 nM in assay [1] and 5 to 10 nM at MAPK1(ERK2) enzyme.
In the same order, the values of `Cn1nccc1Nc1ncc(Cl)c(-c2cc3c4nnc(CC(F)(F)F)n4ccn3c2)n1` [Compound 212] are no more than 100 nM and no more than 5 nM.
Consider `Cn1nccc1Nc1cc(-c2cc3n(c2)CCCn2c-3nnc2C2(C(F)F)CC2)c(Cl)cn1` [Compound 59], for which the half-inhibitory concentration (IC50) in assay [1] is no more than 100 nM; at MAPK1(ERK2) enzyme, no more than 5 nM.
On the same counts, the results for `Cc1cnc(Nc2ccnn2C)cc1-c1cc2n(c1)CCn1c-2nnc1C(F)(F)c1ccccc1F` [Compound 68] are greater than 100 nM and 5 to 10 nM.
Take `Cn1nccc1Nc1cc(-c2cc3n(c2)CCCn2c-3nnc2C2(C(F)(F)F)CCC2)c(F)cn1` [Compound 241]: the values for the half-maximal inhibitory concentration (IC50) (in assay [1]; on MAPK1(ERK2) enzyme) were greater than 100 nM and no more than 5 nM, respectively.
Take `Cn1nccc1Nc1cc(-c2cc3n(c2)CC2(COC2)n2c(CCC(F)(F)F)nnc2-3)c(Cl)cn1` [Compound 305]: the IC50 in assay [1] was greater than 100 nM; at MAPK1(ERK2) enzyme, no more than 5 nM.
For `Cn1nccc1Nc1cc(-c2cc3n(c2)C(C(F)(F)F)Cn2c-3nnc2C(F)(F)C(F)F)c(Cl)cn1` (centres unmarked) [Compound 270], the IC50 in assay [1] is no more than 100 nM; at MAPK1(ERK2) enzyme, greater than 10 nM.
On the same counts, the results for `Cn1nccc1Nc1cc(-c2cc3n(c2)CC2(CC2)Cn2c-3nnc2C(F)(F)C(F)F)c(Cl)cn1` [Compound 93] are no more than 100 nM and 5 to 10 nM.
In the same order, the values of `Cc1cnc(Nc2ccnn2C)cc1-c1cc2n(c1)C[C@H](CF)n1c-2nnc1C(F)(F)n1ccc(Cl)n1` [Compound 152] are no more than 100 nM and no more than 5 nM.
In the same order, the values of `Cc1cnc(Nc2ccnn2C)nc1-c1cc2n(c1)[C@@H](C)Cn1c-2nnc1C1(C(F)(F)F)CCC1` [Compound 47] are no more than 100 nM and no more than 5 nM.
For the compound `Cc1cnc(Nc2ccnn2C)nc1-c1cc2n(c1)C[C@H](CF)n1c-2nnc1C(F)(F)c1ccccc1F` [Compound 131], the IC50 is no more than 100 nM in assay [1] and no more than 5 nM at MAPK1(ERK2) enzyme.
On the same counts, the results for `Cc1cn2cc(-c3ccnc(Nc4ccnn4C)n3)cc2c2nnc(C3(C(F)(F)F)CCC3)n12` [Compound 232] are no more than 100 nM and no more than 5 nM.
For the compound `Cc1cnc(Nc2ccnn2C)cc1-c1cc2n(c1)C[C@H](CF)n1c-2nnc1C(F)(F)c1ccc(F)cc1` [Compound 128], the results for the half-maximal inhibitory concentration (IC50) (in assay [1]; on MAPK1(ERK2) enzyme) were no more than 100 nM and 5 to 10 nM, respectively.
On the same counts, the results for `Cc1cnc(Nc2ccnn2C)nc1-c1cc2n(c1)C[C@H](CF)n1c-2nnc1C(F)(F)c1ccccc1Cl` [Compound 176] are no more than 100 nM and 5 to 10 nM.
In the same order, the values of `Cn1nccc1Nc1cc(-c2cc3n(c2)CCCn2c-3nnc2C2(C(F)F)CC(F)(F)C2)c(Cl)cn1` [Compound 120] are no more than 100 nM and no more than 5 nM.
On the same counts, the results for `Cc1ncccc1C(F)(F)c1nnc2n1[C@@H](CF)Cn1cc(-c3cc(Nc4ccnn4C)ncc3Cl)cc1-2` [Compound 177] are no more than 100 nM and greater than 10 nM.
With `COC[C@H]1Cn2cc(-c3nc(Nc4ccnn4C)ncc3C)nc2-c2nnc(C(F)(F)c3ccccc3F)n21` [Compound 223], the figures for the IC50 (in assay [1]; at MAPK1(ERK2) enzyme) were no more than 100 nM and no more than 5 nM, respectively.
On the same counts, the results for `Cn1nccc1Nc1cc(-c2cc3n(c2)CCCn2c-3nnc2C2(C(C)(F)F)CCC2)c(Cl)cn1` [Compound 49] are no more than 100 nM and no more than 5 nM.
In the same order, the values of `Cc1cnc(Nc2ccnn2C)nc1-c1cc2n(c1)C[C@H](C)n1c-2nnc1C(F)(F)c1ccccc1F` [Compound 88] are no more than 100 nM and no more than 5 nM.
On the same counts, the results for `Cc1cnc(Nc2ccnn2C)nc1-c1cc2n(c1)CCn1c(COc3ccccc3F)nnc1-2` [Compound 7] are no more than 100 nM and no more than 5 nM.
Turning to `Cc1cnc(Nc2ccnn2C)cc1-c1cc2n(c1)CC1(CC1)Cn1c-2nnc1C(F)(F)C(F)F` [Compound 66], the IC50 in assay [1] is no more than 100 nM; on MAPK1(ERK2) enzyme, no more than 5 nM.
Regarding `Cn1nccc1Nc1ncc(Cl)c(-c2cc3n(c2)CCCn2c(COc4ccccc4F)nnc2-3)n1` [Compound 211, 5-chloro-4-(3-((2-fluorophenoxy)methyl)-6,7-dihydro-5H-pyrrolo[1,2-a][1,2,4]triazolo[3,4-c][1,4]diazepin-10-yl)-N-(1-methyl-1H-pyrazol-5-yl)pyrimidin-2-amine], the IC50 in assay [1] is no more than 100 nM; at MAPK1(ERK2) enzyme, 5 to 10 nM.
Regarding `Cc1cnc(Nc2ccnn2C)cc1-c1cc2n(c1)C[C@H](CF)n1c-2nnc1C(F)(F)c1ncccc1F` [Compound 133], the IC50 in assay [1] is no more than 100 nM; on MAPK1(ERK2) enzyme it was no more than 5 nM.
On the same counts, the results for `CO[C@H]1Cn2cc(-c3cc(Nc4ccnn4C)ncc3Cl)cc2-c2nnc(C3(C(F)(F)F)CCC3)n2C1` [Compound 165] are no more than 100 nM and 5 to 10 nM.
In the same order, the values of `Cn1nccc1Nc1cc(-c2cc3n(c2)CCCn2c-3nnc2C(C)(C)C(F)(F)F)c(Cl)cn1` [Compound 22] are greater than 100 nM and no more than 5 nM.
With `Cc1cnc(Nc2ccnn2C)nc1-c1cc2n(c1)CCC(C)(C)n1c-2nnc1C1(C(F)(F)F)CC1` [Compound 251], the figures for the IC50 (in assay [1]; at MAPK1(ERK2) enzyme) were no more than 100 nM and no more than 5 nM, respectively.
As to `C[C@H]1Cn2c(nnc2C2(C(F)(F)F)CCC2)-c2cc(-c3cc(Nc4ccnn4C)ncc3Cl)cn21` [Compound 50], the IC50 in assay [1] is greater than 100 nM; on MAPK1(ERK2) enzyme, no more than 5 nM.
As to `C[C@H]1CCn2cc(-c3cc(Nc4ccnn4C)ncc3Cl)cc2-c2nnc(C3(C(F)(F)F)CCC3)n21` [Compound 262], the results for the 50% inhibitory concentration (IC50) (in assay [1]; on MAPK1(ERK2) enzyme) were no more than 100 nM and 5 to 10 nM, respectively.
On the same counts, the results for `Cn1nccc1Nc1nccc(-c2cc3c4nnc(COc5ccccc5Cl)n4ccn3c2)n1` [Compound 40] are no more than 100 nM and no more than 5 nM.
In the same order, the values of `Cc1cnc(Nc2ccnn2C)nc1-c1cc2n(c1)C[C@H](CF)n1c-2nnc1C(F)(F)c1c(F)cccc1F` [Compound 189] are no more than 100 nM and 5 to 10 nM.
In the same order, the values of `Cn1nccc1Nc1nccc(-c2cc3n(c2)C[C@H](C(F)(F)F)n2c-3nnc2C(F)(F)c2ccccc2F)n1` [Compound 273] are greater than 100 nM and 5 to 10 nM.
